Data: PubChem BioAssay AID1963971 (Molecular Pharmacology Branch, DTP, NCI, 2024)

Tested on: 953936-095-R-J2-PDC spheroids with HUVEC/MSC, viability
Experiment: Anticancer human tumor 953936-095-R-J2-PDC patient-derived cervical squamous cell carcinoma cell line growth inhibition [PI3K]
Settings: for IC50: curve of first compound; for viability, T/C: stronger effect = lower value
Summary of the method: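 Combination activity was assessed by viability in multicellular tumor spheroids carrying HUVEC and MSC components. Agents were tested with PI3K inhibitors from a Cmax-based top dose (or 10 microM) downward in half-log increments.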

[1] = second compound 0.00316 µM, first compound 0.0316 µM
[2] = second compound 0.00316 µM, first compound 0.1 µM
[3] = second compound 0.00316 µM, first compound 0.316 µM
[4] = second compound 0.00316 µM, first compound 1 µM
[5] = second compound 0.00316 µM, first compound 3.16 µM
[6] = second compound 0.00316 µM, first compound 10 µM
[7] = second compound 0.01 µM, first compound 0.0316 µM
[8] = second compound 0.01 µM, first compound 0.1 µM
[9] = second compound 0.01 µM, first compound 0.316 µM
[10] = second compound 0.01 µM, first compound 1 µM
[11] = second compound 0.01 µM, first compound 3.16 µM
[12] = second compound 0.01 µM, first compound 10 µM
[13] = second compound 0.0316 µM, first compound 0.0316 µM
[14] = second compound 0.0316 µM, first compound 0.1 µM
[15] = second compound 0.0316 µM, first compound 0.316 µM
[16] = second compound 0.0316 µM, first compound 1 µM
[17] = second compound 0.0316 µM, first compound 3.16 µM
[18] = second compound 0.0316 µM, first compound 10 µM
[19] = second compound 0.1 µM, first compound 0.0316 µM
[20] = second compound 0.1 µM, first compound 0.1 µM
[21] = second compound 0.1 µM, first compound 0.316 µM
[22] = second compound 0.1 µM, first compound 1 µM
[23] = second compound 0.1 µM, first compound 3.16 µM
[24] = second compound 0.1 µM, first compound 10 µM
[25] = second compound 0.316 µM, first compound 0.0316 µM
[26] = second compound 0.316 µM, first compound 0.1 µM
[27] = second compound 0.316 µM, first compound 0.316 µM
[28] = second compound 0.316 µM, first compound 1 µM
[29] = second compound 0.316 µM, first compound 3.16 µM
[30] = second compound 0.316 µM, first compound 10 µM
[31] = second compound 1 µM, first compound 0.0316 µM
[32] = second compound 1 µM, first compound 0.1 µM
[33] = second compound 1 µM, first compound 0.316 µM
[34] = second compound 1 µM, first compound 1 µM
[35] = second compound 1 µM, first compound 3.16 µM
[36] = second compound 1 µM, first compound 10 µM
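Further: spheroids exposed to compounds for seven days before read-out.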

## C#Cc1c(F)ccc2cc(O)cc(-c3ncc4c(N5CC6CCC(C5)N6)nc(OCC56CCCN5CC(F)C6)nc4c3F)c12 (stereo unspecified) + CC(Nc1ccc2c(c1)OCCn1cc(N3C(=O)OCC3C(F)F)nc1-2)C(N)=O
Second compound 0.00316 µM
  IC50: > 10 µM
Second compound 0.01 µM
  IC50: > 10 µM
Second compound 0.0316 µM
  IC50: 7.1 µM
Second compound 0.1 µM
  IC50: 1.02 µM
Second compound 0.316 µM
  IC50: < 0.0316 µM
Second compound 1 µM
  IC50: < 0.0316 µM
[1]
  viability, T/C: 95.9%
[2]
  viability, T/C: 110%
[3]
  viability, T/C: 89.5%
[4]
  viability, T/C: 87.6%
[5]
  viability, T/C: 71.6%
[6]
  viability, T/C: 76.3%
[7]
  viability, T/C: 92.5%
[8]
  viability, T/C: 95%
[9]
  viability, T/C: 80.9%
[10]
  viability, T/C: 88.2%
[11]
  viability, T/C: 64.8%
[12]
  viability, T/C: 61%
[13]
  viability, T/C: 78.3%
[14]
  viability, T/C: 81.6%
[15]
  viability, T/C: 76.1%
[16]
  viability, T/C: 70%
[17]
  viability, T/C: 61.5%
[18]
  viability, T/C: 45.2%
[19]
  viability, T/C: 60.1%
[20]
  viability, T/C: 64.7%
[21]
  viability, T/C: 57.4%
[22]
  viability, T/C: 48.3%
[23]
  viability, T/C: 41.2%
[24]
  viability, T/C: 30%
[25]
  viability, T/C: 38.3%
[26]
  viability, T/C: 34.6%
[27]
  viability, T/C: 36.1%
[28]
  viability, T/C: 28.2%
[29]
  viability, T/C: 22.6%
[30]
  viability, T/C: 17.3%
[31]
  viability, T/C: 24%
[32]
  viability, T/C: 21.9%
[33]
  viability, T/C: 21.6%
[34]
  viability, T/C: 16%
[35]
  viability, T/C: 12.4%
[36]
  viability, T/C: 9.54%

## C=CC(=O)N1CCN(c2nc(=O)n(-c3c(C)ccnc3C(C)C)c3nc(-c4c(O)cccc4F)c(F)cc23)C(C)C1 (stereo unspecified) + CC(Nc1ccc2c(c1)OCCn1cc(N3C(=O)OCC3C(F)F)nc1-2)C(N)=O
Second compound 0.00316 µM
  IC50: > 10 µM
Second compound 0.01 µM
  IC50: > 10 µM
Second compound 0.0316 µM
  IC50: > 10 µM
Second compound 0.1 µM
  IC50: > 10 µM
Second compound 0.316 µM
  IC50: < 0.0316 µM
Second compound 1 µM
  IC50: < 0.0316 µM
[1]
  viability, T/C: 94.8%
[2]
  viability, T/C: 94.5%
[3]
  viability, T/C: 99.9%
[4]
  viability, T/C: 110%
[5]
  viability, T/C: 114%
[6]
  viability, T/C: 112%
[7]
  viability, T/C: 86.8%
[8]
  viability, T/C: 91.3%
[9]
  viability, T/C: 101%
[10]
  viability, T/C: 101%
[11]
  viability, T/C: 116%
[12]
  viability, T/C: 108%
[13]
  viability, T/C: 80%
[14]
  viability, T/C: 82.5%
[15]
  viability, T/C: 89.5%
[16]
  viability, T/C: 98.6%
[17]
  viability, T/C: 90.4%
[18]
  viability, T/C: 94.1%
[19]
  viability, T/C: 60.2%
[20]
  viability, T/C: 56.2%
[21]
  viability, T/C: 61.4%
[22]
  viability, T/C: 72.3%
[23]
  viability, T/C: 77.7%
[24]
  viability, T/C: 69.2%
[25]
  viability, T/C: 37.1%
[26]
  viability, T/C: 35.3%
[27]
  viability, T/C: 34.9%
[28]
  viability, T/C: 42%
[29]
  viability, T/C: 39.6%
[30]
  viability, T/C: 35.9%
[31]
  viability, T/C: 21.4%
[32]
  viability, T/C: 25.3%
[33]
  viability, T/C: 23.2%
[34]
  viability, T/C: 24.5%
[35]
  viability, T/C: 22.5%
[36]
  viability, T/C: 19.6%

## CC(Cn1ccc(-c2ccc(C#N)c(Cl)c2)n1)NC(=O)c1cc(C(C)O)[nH]n1 (stereo unspecified) + CC(Nc1ccc2c(c1)OCCn1cc(N3C(=O)OCC3C(F)F)nc1-2)C(N)=O
Second compound 0.00316 µM
  IC50: > 10 µM
Second compound 0.01 µM
  IC50: > 10 µM
Second compound 0.0316 µM
  IC50: > 10 µM
Second compound 0.1 µM
  IC50: > 10 µM
Second compound 0.316 µM
  IC50: < 0.0316 µM
Second compound 1 µM
  IC50: < 0.0316 µM
[1]
  viability, T/C: 86.4%
[2]
  viability, T/C: 92.7%
[3]
  viability, T/C: 94%
[4]
  viability, T/C: 97.8%
[5]
  viability, T/C: 105%
[6]
  viability, T/C: 107%
[7]
  viability, T/C: 87.7%
[8]
  viability, T/C: 90.9%
[9]
  viability, T/C: 92.1%
[10]
  viability, T/C: 91.5%
[11]
  viability, T/C: 86.6%
[12]
  viability, T/C: 95.1%
[13]
  viability, T/C: 84.3%
[14]
  viability, T/C: 76.1%
[15]
  viability, T/C: 74.7%
[16]
  viability, T/C: 84.5%
[17]
  viability, T/C: 81.7%
[18]
  viability, T/C: 82.6%
[19]
  viability, T/C: 58.1%
[20]
  viability, T/C: 56.3%
[21]
  viability, T/C: 54.6%
[22]
  viability, T/C: 54.4%
[23]
  viability, T/C: 61.3%
[24]
  viability, T/C: 56.5%
[25]
  viability, T/C: 34.3%
[26]
  viability, T/C: 32.5%
[27]
  viability, T/C: 32.6%
[28]
  viability, T/C: 36.2%
[29]
  viability, T/C: 38.4%
[30]
  viability, T/C: 34.6%
[31]
  viability, T/C: 21.8%
[32]
  viability, T/C: 21.7%
[33]
  viability, T/C: 20.9%
[34]
  viability, T/C: 26.6%
[35]
  viability, T/C: 22.6%
[36]
  viability, T/C: 24.1%
